Measured values published in US7288760B2, “Conformational real-time atmospheric and environmental characterization sampling apparatus and method” (Battelle Memorial Institute, priority 2005, dated 2007).

Assay type: in vivo
Details: dermal delivery via glass cup bulb, approximately 0.0007 g toluene, ~253 g rat, 10-L glass sampling chamber, quadrupole MS m/z=92, throughput 195 mL/min
Method: FIG. 5a illustrates a system 200 for real-time monitoring and/or analysis of analytes released to a sampling environment 30 in conjunction with animal exposure studies, according to another embodiment of the invention. In Example 4 below, a live animal (e.g., rat) 32 placed in a sampling environment 30 is dosed or treated with a chemical or a drug delivered, e.g., via a dermal cup bulb 34 in conjunction with a precision syringe 36 or other delivery means, including but not limited to, dermal patch, injection, or the like. Environment 30 is monitored in real-time via coupling with manifold 20 at the breathing (clearance) rate of the animal until desired target analytes, metabolites, and/or chemical indicators of interest are detected or quantified in the mass-selective detector or instrument comprising system 10. […]
A custom made ˜3-cc glass cup bulb 34 including a septum (not shown) made of silicon sealant (Dow Corning, Baltimore, Md.) was affixed to the dermis of an anesthetized ˜253 g rat 32 using a veterinary bonding compound (e.g., vet bond®, 3M, St. Paul, Minn.) and allowed to affix for ˜12 to 14 hours. […] Alternatively, breathing rate can be determined using a breathing plethysmograph (e.g., a double chamber plethysmograph, Buxco Electronics, Inc., Wilmington, N.C.). […]

SMILES: Cc1ccccc1 [toluene]
- Time from exposure to detection of the toluene analyte from the respired breath of animal: about 30 minutes
